pIC50: −log10 of the molar value. Converted amounts (≈) assume the structure as drawn. Where two headings read alike, the source gives them in different places.
Key:
M. tuberculosis (H37Rv) = experiment: microbe, parasite or virus in culture; format: cell-based, Mycobacterium tuberculosis; details: Mycobacterium tuberculosis, H37RV
physchem [1] = format: physicochemical
[2] = format: in vitro ADME, mouse
[3] = format: in vitro ADME, mouse; remark: listed apart in the source
[4] = system: mycolic acid biosynthesis; details: with accumulation of mycolic acid precursors; cited from earlier work
physchem [5] = details: pH 7.4
HepG2 cells = experiment: HepG2 cytotoxicity; details: Homo sapiens
Text: Assays to establish HepG2 cytotoxicity, in vitro microsomal/hepatocyte metabolic stability, aqueous kinetic solubility, and in vivo pharmacokinetic profiles were all performed as previously described.[15],[35]−[37]

M. tuberculosis H37Rv [6] = format: in vivo; details: C57BL/6J mice, oral dosing for 8 days from day 1 post-infection, qPCR
[7] = human liver microsomes
M. tuberculosis H37Rv [8] = format: cell-based, Mycobacterium tuberculosis
[9] = system: H37Rv growing inside J774 macrophages; experiment: Intramacrophage efficacy; format: cell-based, Mycobacterium tuberculosis; details: 7 days of treatment
[10] = mouse, in vivo
[11] = efficacy experiment at 20 times the oral PK dose
in vivo = details: C57BL/6J, mouse, po
in vitro = details: plasma
[12] = HepG2, read-out: HepG2 inhibitory concentration (IC50)
[13] = read-out: Wk2_7H9/DPPC/ casitone/ Tyloxapol MIC
[14] = read-out: Wk2_ 7H9/DPPC/ cholesterol/BSA/ Tyloxapol MIC
[15] = read-out: Wk2_7H9/glucose/ BSA/Tyloxapol MIC
[16] = read-out: Wk2_7H9/glucose/ casitone/ Tyloxapol MIC
[17] = pH 7.4, aqueous buffer, kinetic from dmso stock

CCOC(=O)c1c(NC(=O)c2c(F)c(F)c(F)c(F)c2F)sc(C(N)=O)c1C [TP4, reference compound]
MIC (M. tuberculosis (H37Rv); read-out: H37Rv MIC A): 0.03 µM (≈ 0.0127 µg/mL) | MIC (M. tuberculosis (H37Rv); read-out: H37Rv MIC B): 0.26 µM (≈ 0.11 µg/mL) | solubility kinetic (physchem [1]; water, kinetic from dmso stock): 1.1 µM (≈ 0.465 µg/mL) | Mouse micro Cl ([2]; mouse, microsomes): 13 mLmin/g | Mouse Heps Cl ([3]; mouse, hepatocytes): >50 mLmin/g | effect on mycolic acid biosynthesis [4]: inhibited mycolic acid biosynthesis | chromatographic logD (physchem [5]): 3.4 | pIC50 (HepG2 cells; [12]): 5.37

COc1c(N2C[C@@H]3CCCN[C@@H]3C2)c(F)cc2c(=O)c(C(=O)O)cn(C3CC3)c12 [Moxifloxacin, reference compound]
reduction in bacterial DNA in lungs compared to the untreated control (M. tuberculosis H37Rv [6]): ~3 log

COC(=O)c1c(NC(=O)c2c(F)c(F)c(F)c(F)c2F)sc2c1CCCCC2 [TP2, reference compound]
MIC (M. tuberculosis (H37Rv); read-out: H37Rv MIC A): 0.11 µM (≈ 0.0461 µg/mL) | MIC (M. tuberculosis (H37Rv); read-out: H37Rv MIC B): 1.2 µM (≈ 0.503 µg/mL) | solubility kinetic (physchem [1]; water, kinetic from dmso stock): 0.2 µM (≈ 0.0839 µg/mL) | Mouse micro Cl ([2]; mouse, microsomes): 15 mLmin/g | Mouse Heps Cl ([3]; mouse, hepatocytes): 43.2 mLmin/g | time to complete elimination of parent ([7]; glutathione conjugation): ≤ 6 min | effect on mycolic acid biosynthesis [4]: inhibited mycolic acid biosynthesis | chromatographic logD (physchem [5]): 4.6 | pIC50 (HepG2 cells; [12]): 4.89

CCOC(=O)c1nc(CN(C)C)oc1NC(=O)c1c(F)c(F)c(F)c(F)c1F [Compound 35, CCOC(=O)c1nc(oc1NC(=O)c1c(c(c(c(c1F)F)F)F)F)CN(C)C]
MIC (M. tuberculosis (H37Rv); read-out: H37Rv MIC A): 2.3 µM (≈ 0.937 µg/mL) | MIC (M. tuberculosis (H37Rv); read-out: H37Rv MIC B): 4.7 µM (≈ 1.91 µg/mL) | MIC (M. tuberculosis (H37Rv); [13]): 2.3 µM (≈ 0.937 µg/mL) | MIC (M. tuberculosis (H37Rv); [14]): 4.7 µM (≈ 1.91 µg/mL) | MIC (M. tuberculosis (H37Rv); [15]): 4.7 µM (≈ 1.91 µg/mL) | MIC (M. tuberculosis (H37Rv); [16]): 1.6 µM (≈ 0.652 µg/mL) | solubility kinetic (physchem [1]; [17]): 225 µM (≈ 91.6 µg/mL) | solubility kinetic (physchem [1]; read-out: Kin. Sol): 225 µM (≈ 91.6 µg/mL) | Microsomal Cli ([2]; CD1, mouse): <0.5 mL/min/g | Mouse micro Cl ([2]; mouse, microsomes): <0.5 mL/min/g | Hepatocyte Cli ([3]; mouse): 4.7 mL/min/g | Mouse Heps Cl ([3]; mouse, hepatocytes): 4.7 mL/min/g | chromatographic logD (physchem [5]): 1.3 | pIC50 (HepG2 cells; [12]): < 4.00

CCOC(=O)c1nc(C)oc1NCc1c(F)c(F)c(F)c(F)c1F [Compound 29, CCOC(=O)c1nc(oc1NCc1c(c(c(c(c1F)F)F)F)F)C]
MIC (M. tuberculosis (H37Rv); read-out: H37Rv MIC A): > 50 µM | MIC (M. tuberculosis (H37Rv); read-out: H37Rv MIC B): > 50 µM | MIC (M. tuberculosis (H37Rv); [13]): > 50 µM | MIC (M. tuberculosis (H37Rv); [14]): > 50 µM | MIC (M. tuberculosis (H37Rv); [15]): > 50 µM | MIC (M. tuberculosis (H37Rv); [16]): > 50 µM | solubility kinetic (physchem [1]; [17]): 23 µM (≈ 8.06 µg/mL) | solubility kinetic (physchem [1]; read-out: Kin. Sol): 23 µM (≈ 8.06 µg/mL) | Microsomal Cli ([2]; CD1, mouse): 32 mL/min/g | Mouse micro Cl ([2]; mouse, microsomes): 32 mLmin/g | Hepatocyte Cli ([3]; mouse): >50 mL/min/g | Mouse Heps Cl ([3]; mouse, hepatocytes): >50 mLmin/g | chromatographic logD (physchem [5]): 3.2 | pIC50 (HepG2 cells; [12]): < 4.00

CCOC(=O)c1nc(C)oc1NC(=O)c1c(F)c(F)cc(F)c1F [Compound 28, CCOC(=O)c1nc(oc1NC(=O)c1c(c(cc(c1F)F)F)F)C]
MIC (M. tuberculosis (H37Rv); read-out: H37Rv MIC A): > 50 µM | MIC (M. tuberculosis (H37Rv); read-out: H37Rv MIC B): > 50 µM | MIC (M. tuberculosis (H37Rv); [13]): > 50 µM | MIC (M. tuberculosis (H37Rv); [14]): > 50 µM | MIC (M. tuberculosis (H37Rv); [15]): > 50 µM | MIC (M. tuberculosis (H37Rv); [16]): > 50 µM | solubility kinetic (physchem [1]; kinetic solubility in water, read-out: Kin. Sol): 163 µM (≈ 56.4 µg/mL) | solubility kinetic (physchem [1]; pH 7.4, aqueous buffer, kinetic from dmso stock, pH7.4, read-out: Kinetic Solubility pH7.4): 163 µM (≈ 56.4 µg/mL) | Mouse micro Cl ([2]; intrinsic clearance (Cli), CD1 mouse liver microsomes, Tables 1-4): <0.5 mLmin/g | Microsomal Cli ([2]; supplement data table): <0.5 mL/min/g | Mouse Heps Cl ([3]; intrinsic clearance (Cli), mouse hepatocytes, Tables 1-4): 0.88 mLmin/g | Hepatocyte Cli ([3]; supplement data table): 0.9 mL/min/g | chromatographic logD (physchem [5]): 1.7 | pIC50 (HepG2 cells; HepG2, read-out: Hs-HEPG IC50): < 4.00

CCOC(=O)c1nc(C)oc1NS(=O)(=O)c1c(F)c(F)c(F)c(F)c1F [Compound 30, CCOC(=O)c1nc(oc1NS(=O)(=O)c1c(c(c(c(c1F)F)F)F)F)C]
MIC (M. tuberculosis (H37Rv); read-out: H37Rv MIC A): > 50 µM | MIC (M. tuberculosis (H37Rv); read-out: H37Rv MIC B): > 50 µM | MIC (M. tuberculosis (H37Rv); [13]): > 50 µM | MIC (M. tuberculosis (H37Rv); [14]): > 50 µM | MIC (M. tuberculosis (H37Rv); [15]): > 50 µM | MIC (M. tuberculosis (H37Rv); [16]): > 50 µM | solubility kinetic (physchem [1]; [17]): 171 µM (≈ 68.4 µg/mL) | solubility kinetic (physchem [1]; read-out: Kin. Sol): 171 µM (≈ 68.4 µg/mL) | Microsomal Cli ([2]; CD1, mouse): 0.9 mL/min/g | Mouse micro Cl ([2]; mouse, microsomes): 0.94 mLmin/g | Hepatocyte Cli ([3]; mouse): 0.8 mL/min/g | Mouse Heps Cl ([3]; mouse, hepatocytes): 0.78 mLmin/g | chromatographic logD (physchem [5]): 1.4 | pIC50 (HepG2 cells; [12]): < 4.00

Cc1noc(-c2nc(C)oc2NC(=O)c2c(F)c(F)c(F)c(F)c2F)n1 [Compound 43, Cc1noc(n1)-c1nc(oc1NC(=O)c1c(c(c(c(c1F)F)F)F)F)C]
MIC (M. tuberculosis (H37Rv); read-out: H37Rv MIC A): 0.8 µM (≈ 0.299 µg/mL) | MIC (M. tuberculosis (H37Rv); read-out: H37Rv MIC B): 1.8 µM (≈ 0.674 µg/mL) | MIC (M. tuberculosis (H37Rv); [13]): 0.8 µM (≈ 0.299 µg/mL) | MIC (M. tuberculosis (H37Rv); [14]): 1.8 µM (≈ 0.674 µg/mL) | MIC (M. tuberculosis (H37Rv); [15]): 1.8 µM (≈ 0.674 µg/mL) | MIC (M. tuberculosis (H37Rv); [16]): 0.7 µM (≈ 0.262 µg/mL) | solubility kinetic (physchem [1]; [17]): 196 µM (≈ 73.3 µg/mL) | solubility kinetic (physchem [1]; read-out: Kin. Sol): 196 µM (≈ 73.3 µg/mL) | Microsomal Cli ([2]; CD1, mouse): <0.5 mL/min/g | Mouse micro Cl ([2]; mouse, microsomes): <0.5 mL/min/g | Hepatocyte Cli ([3]; mouse): 3.4 mL/min/g | Mouse Heps Cl ([3]; mouse, hepatocytes): 3.4 mL/min/g | reduction in bacterial DNA in lungs compared to the untreated control (M. tuberculosis H37Rv [6]): no reduction in DNA levels | CFU reduction relative to input bacterial counts (M. tuberculosis H37Rv [8]; treatment for 3 days): ~1 log units | CFU reduction relative to input bacterial counts (M. tuberculosis H37Rv [8]; treatment for 7 days): ~2 log units | concentration required to exert a cidal effect [9]: 10 µM | parental material remaining ([7]; after 90 min, glutathione/NADPH): 57% | bioavailability [10]: very good | clearance [10]: very good | half-life [10]: moderate | volume of distribution [10]: limited | increase of Cmax in the animal efficacy study versus oral PK study [11]: < 3 fold | AUC(0-t) (in vivo): 167 µg·h/mL | Cmax (in vivo): 30000 ng/mL | chromatographic logD (physchem [5]): 1.2 | fraction unbound (in vitro): 0.03 | pIC50 (HepG2 cells; [12]): < 4.00

Cc1nc(C(=O)O)c(NC(=O)c2c(F)c(F)c(F)c(F)c2F)o1 [Compound 38, Cc1nc(c(o1)NC(=O)c1c(c(c(c(c1F)F)F)F)F)C(=O)O]
MIC (M. tuberculosis (H37Rv); read-out: H37Rv MIC A): > 50 µM | MIC (M. tuberculosis (H37Rv); read-out: H37Rv MIC B): > 50 µM | MIC (M. tuberculosis (H37Rv); [13]): 5.4 µM (≈ 1.82 µg/mL) | MIC (M. tuberculosis (H37Rv); [14]): > 50 µM | MIC (M. tuberculosis (H37Rv); [15]): 43 µM (≈ 14.5 µg/mL) | MIC (M. tuberculosis (H37Rv); [16]): 7.7 µM (≈ 2.59 µg/mL) | solubility kinetic (physchem [1]; [17]): 250 µM (≈ 84 µg/mL) | solubility kinetic (physchem [1]; read-out: Kin. Sol): 250 µM (≈ 84 µg/mL) | Microsomal Cli ([2]; CD1, mouse): <0.5 mL/min/g | Mouse micro Cl ([2]; mouse, microsomes): <0.5 mL/min/g | Hepatocyte Cli ([3]; mouse): 1.3 mL/min/g | Mouse Heps Cl ([3]; mouse, hepatocytes): 1.3 mL/min/g | chromatographic logD (physchem [5]): 0.78 | pIC50 (HepG2 cells; [12]): < 4.00

Reference: article PMC11915372, “Identification of a Series Containing a Pentafluorophenyl Moiety That Targets Pks13 to Inhibit Growth of Mycobacterium tuberculosis” (ACS Infectious Diseases, 2025)
